Literature values, collected in US20210161808A1, “Nasal Drug Delivery System of Brivaracetam or Salt Thereof” (Zenvision Pharma LLP, priority 2018, published 2021).
Where two headings read alike, the source gives them in different places.

Experiments:
[1] = biological target: synaptic vesicle protein 2A (SV2A) (Homo sapiens, UniProt Q7L0J3); conditions: in the brain
Chain of synaptic vesicle protein 2A (SV2A) (Q7L0J3 whole entry): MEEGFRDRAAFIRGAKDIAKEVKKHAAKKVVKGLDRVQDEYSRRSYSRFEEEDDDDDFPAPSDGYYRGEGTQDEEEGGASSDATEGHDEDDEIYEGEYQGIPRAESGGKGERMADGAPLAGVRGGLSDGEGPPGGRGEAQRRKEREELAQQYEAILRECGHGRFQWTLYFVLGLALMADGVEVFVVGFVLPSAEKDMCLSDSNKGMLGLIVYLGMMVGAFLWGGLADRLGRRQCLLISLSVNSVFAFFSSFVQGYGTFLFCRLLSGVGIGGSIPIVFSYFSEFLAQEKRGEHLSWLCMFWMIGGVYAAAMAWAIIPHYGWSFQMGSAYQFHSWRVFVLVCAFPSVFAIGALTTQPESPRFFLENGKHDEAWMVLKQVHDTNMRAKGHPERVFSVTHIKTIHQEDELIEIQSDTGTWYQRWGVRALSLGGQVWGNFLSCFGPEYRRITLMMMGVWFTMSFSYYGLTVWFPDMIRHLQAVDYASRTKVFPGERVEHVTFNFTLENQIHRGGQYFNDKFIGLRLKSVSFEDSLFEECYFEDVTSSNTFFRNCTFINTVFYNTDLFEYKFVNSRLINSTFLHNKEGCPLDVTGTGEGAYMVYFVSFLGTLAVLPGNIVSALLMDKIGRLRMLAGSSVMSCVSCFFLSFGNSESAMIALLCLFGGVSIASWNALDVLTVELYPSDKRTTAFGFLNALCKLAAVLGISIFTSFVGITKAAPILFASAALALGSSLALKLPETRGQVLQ

SMILES: CCC[C@@H]1CC(=O)N([C@@H](CC)C(N)=O)C1 [Brivaracetam, (2S)-2-[(4R)-2-oxo-4-propyltetrahydro-1H-pyrrol-1-yl] butanamide]
- affinity for synaptic vesicle protein 2A (SV2A) [1]: high and selective affinity
- solubility (in acetone): freely soluble
- solubility (in acetonitrile): freely soluble
- solubility (in buffer (pH 1.2, 4.5, and 7.4)): very soluble
- solubility (in ethanol): very soluble
- solubility (in glacial acetic acid): very soluble
- solubility (in methanol): very soluble
- solubility (in n-hexane): very slightly soluble
- solubility (in toluene): soluble
- solubility (in water): very soluble
